Tests used:
Ai14 mice = test: In vivo genome editing, intramuscular injection, tdTomato expression; set-up: species or system mouse; conditions: single IM dose, day 10
Protocol: Similar to the in vitro transfection study, lipidoid nanoparticles were prepared for mRNA or protein loading and in vivo delivery. Ai14 mice were housed in a temperature and humidity controlled facility with a 12 h light/dark cycle. Three mice in each group were injected (intravenously or intramuscularly) with Cre mRNA-loaded or (−30)GFP-Cre protein-loaded LNPs formulations. Organs including heart, liver, spleen, lung and kidney from all groups were collected at day 10 (intramuscular injection) or 14 (intravenous injection) after injection. The tissues were fixed overnight in 4% paraformaldehyde (PFA) and dehydrated in 30% sucrose before being froze in OCT and sectioned into 10-15 μm slices. The slices were then collected and stained with DAPI for fluorescence imaging (BZ-X Analyzer fluorescence microscopy).
Cre-loxP system and transgenic Ai14 mouse model were used in the in vivo genome editing study. […] When the Cre recombinase mediated gene reorganization occurs, the STOP cassette could be removed, resulting in the expression of fluorescent tdTomato reporter protein.
Local delivery through intramuscular injection (IM injection; rear leg) using (−30)GFP-Cre protein and Cre mRNA loaded 76-OCholB LNPs (FIG. 17B). Ai14 mice (n=3) received single dose of (−30)GFP-Cre/LNPs (50 μg of protein) or mRMA/LNPs (10 μg of mRNA) injection at day 1 and were sacrificed at day 10. […]

Cy5-RNA = test: RNA binding test of lipidoid nanoparticles; format: physicochemical
Protocol: Lipidoids were fabricated into nanoparticles for all delivery applications. Briefly, lipidoids were mixed with sodium acetate buffer (25 mM, pH 5.2), sonicated for 30 min in an ultrasonic bath, followed by another 30 min of vigorous vortexing. The as-prepared blank LNPs were stored at 4° C. For Cy5-RNA/LNP, mRNA/LNP and protein/LNP complexation, blank lipidoid nanoparticles were mixed with RNA molecules or (−30)GFP-Cre protein in PBS buffer (pH 7.4) following our previously reported procedures and incubated at room temperature for another 30 min before use. Typical procedures for Nile red encapsulation are as follows: 5 μL of Nile red stock solution in acetone was added into an empty vial, which was then placed in a vacuum oven to completely remove the organic solvent. Then, a predetermined amount of blank LNP stock solution (1.0 mg/mL) was added into the vial. The mixture was sonicated for 40 min in an ultrasonic bath and stirred overnight at room temperature. The final concentration of Nile red was adjusted to 6.6×10-7 mol L-1 and 6×10-7 mol L-1 for thiol triggered release study and cell incubation, respectively, by diluting with PBS as necessary. Typical procedures for CPT and DiO/DiI FRET pair encapsulation are as follows: 100 μL of DiO/DiI stock solution in MeOH was charged into an empty vial and placed in a vacuum oven to remove the organic solvent. Lipidoids (2.0 mg) in 200 μL of methanol were then added into the vial and stirred to produce a homogeneous solution. Then, 600 μL of DI water was added dropwise in 10 min with continuous stirring. The resulting mixture was dialyzed against DI water for 24 h (Thermo Scientific Slide-A-Lyzer Dialysis Cassette, MWCO=3500 Da), and fresh water was replaced every 4 h. Typical procedures for encapsulation of calcein and doxonorubicin hydrochloride are as follows: precalculated amounts of calcein or Dox stock solutions in DI water was diluted into 800 μL with sodium acetate buffer, and used as the selective solvents to trigger the self-assembly process of lipidoids in methanol (5 mg/mL), respectively. […]

HeLa cells = test: Internalization of calcein loaded nanoparticles; format: cell-based; conditions: 8 h of exposure
Protocol: The internalization kinetics and efficiencies of OCholB LNPs were then studied using NR loaded LNPs and HeLa cells. […] Next, all of the NR delivery efficiencies of eight OCholB LNPs were determined after 8 h of exposure. […] Representative fluorescent images of NR/LNPs (NR/75-OCholB, NR/76-OCholB and NR/77-OCholB) treated HeLa cells are shown in FIG. 12D, from which it is easily observed that NR was delivered into the cells and mainly distributed in cytoplasm, by OCholB LNPs. Next, the internalization of negatively charged hydrophilic fluorescent dye, calcein, was studied. […] Next, the use of OCholB LNPs for the intracellular delivery of macromolecular cargo was explored, using fluorescent recombinant (−30)GFP-Cre protein and HeLa-DsRed cells as the model system. […] Delivery efficiency was tested at a range of (−30)GFP-Cre protein concentrations (25, 50 and 100 nM), with a consistent lipid/protein ratio (i.e., delivery with the final lipid concentration of 1.7, 3.3, and 6.6 μg mL^−1 respectively). 33.2%, 43.8% and 74% of GFP positive (GFP^+) cells were recorded for (−30)GFP-Cre/Lpf2k treated cells with the concentration of (−30)GFP-Cre 25 nM, 50 nM and 100 nM, respectively. […]

[1] = 10/1 weight ratio, DTT (10 mM, 24 h) treated nanoparticles

Structure (SMILES) | tdTomato fluorescent signals in skeletal muscle (Ai14 mice; (−30)GFP-Cre protein loaded, 50 μg protein) | tdTomato fluorescent signals in skeletal muscle (Ai14 mice; Cre mRNA loaded, 10 μg mRNA) | RNA molecules complexed with LNPs (Cy5-RNA; 10/1 weight ratio lipidoid/Cy5-RNA) [%] | RNA binding efficacy (Cy5-RNA; [1]) [%] | unbound Cy5-RNA (Cy5-RNA; [1]) [%] | mean fluorescent intensity vs free calcein-treated cells (HeLa cells) [folds]
CC(C)CCCC(C)C1CCC2C3CC=C4CC(OC(=O)NCCSSCCOC(=O)CCN(CCC(=O)OCCSSCCNC(=O)OC5CCC6(C)C(=CCC7C6CCC6(C)C(C(C)CCCC(C)C)CCC76)C5)CCN5CCCC5)CCC4(C)C3CCC12C (stereo not drawn) [Lipidoid 76-OCholB] | strong tdTomato fluorescent signals | strong tdTomato fluorescent signals | – | – | – | –
CCN(CC)CCN(CCC(=O)OCCSSCCNC(=O)OC1CCC2(C)C(=CCC3C2CCC2(C)C(C(C)CCCC(C)C)CCC32)C1)CCC(=O)OCCSSCCNC(=O)OC1CCC2(C)C(=CCC3C2CCC2(C)C(C(C)CCCC(C)C)CCC32)C1 (stereo not drawn) [Lipidoid 75-OCholB] | – | – | 82.9 | 15.5 | 84.5 | ~9.4

From US12133855B2, “Lipid-like nanocomplexes and uses thereof” (Trustees of Tufts College, priority 2018, dated 2024)
